The results in this text go back to US20180103638A1, “SOIL TREATMENT” (PeroxyChem LLC, priority 2016, published 2018).

Entries after “also recorded” stand apart in the source; their conditions may differ. Like-named read-outs stand apart in the source and are kept apart here.

Assay [1] relates to Bacillus mycoides. It is filed as cell-based. The note with it: treated four days, soil. The source says: (§1) Test method: A peracetic acid stock solution containing 5% PAA and 22% H2O2 (VigorOx® from PeroxyChem, LLC) was used for methods that specified 1750 ppm PAA. A peracetic acid stock solution containing 15% PAA and 10% H2O2 (VigorOx SP-15) was used for methods that specified 3525 ppm PAA. A stock solution of formaldehyde (37% in 10-15% methanol) was used to prepare a 1% aqueous solution of formaldehyde (with about 0.3% methanol).
(§2) Solutions were applied as the soil drench with an application volume of 12 kL/ha. The Test Medium was: pasteurized 50:50 Loamy sand or pasteurized sand. The efficacy of PAA was evaluated in three different Greenhouse Test Assays: 1) the Tomato Root-knot Galling Index Assay using the nematode species Meloidogyne incognita and Meloidogyne hapla; 2) the Root-knot Nematode Egg Hatch Assay using the nematode species Meloidogyne incognita and Meloidogyne hapla; and 3) assay of levels of soil bacteria using Bacillus mycoides.
Soil was inoculated with Bacillus mycoides, incubated for five days and then treated with formaldehyde or […] for four days. Bacteria were collected from soil and their levels were evaluated based on colony forming units.

Assay [2] concerns Meloidogyne incognita and Meloidogyne hapla. It is filed as in vivo.
From the text: as §1, §2

Assay [3] has the same test system. The experiment in a line: Root-knot Nematode Egg Hatch Assay (soil drench). It is filed as in vivo. The note with it: for % Egg Hatching: Example 3, 1 ml/cm^2, sand-loam soil, relative to distilled water control (100).
From the text: as §1, §2
The Root-knot Nematode Egg Hatch Assay was carried out essentially as follows. Eggs were collected from roots of infected tomato plants. To release the eggs, the egg masses were placed in a solution of sodium hypochlorite and manually shaken. The solution was centrifuged and the eggs washed with distilled water. Eggs were kept in the dark until needed for the experiments and used in the same day of collection. The experiments were performed in pots filled with pasteurized soil inoculated with about several thousands of individual eggs and then drenched with each treatment solution and controls. The treated soils were covered and incubated for the time periods indicated below. Following the incubation period, the soils were transferred to collect hatched J2 (second stage juveniles). The collected material was observed under the microscope and the number of J2 counted.
Seedlings were inoculated and cultured in pasteurized Pemberton soil for 14 days. Seedlings were then treated with either formaldehyde, 1750 ppm PAA or 3525 ppm PAA for 13 days. Nematode eggs were extracted from infected roots and their ability to hatch was evaluated.
Test method: A peracetic acid stock solution containing 15% PAA and 10% H2O2 (VigorOx SP-15) was used for methods that specified 3750, 5000, 7500, 10000 ppm PAA. Capryleth-9 carboxylic acid (C9CA) was used at concentrations of 5000 and 10000 ppm. A stock solution of formaldehyde (37% in 10-15% methanol) was used to prepare a 1% aqueous solution of formaldehyde. The final methanol concentration was about 0.3%.
Solutions were applied as a soil drench with an application volume of 12 kL/ha. The Test Medium was pasteurized Pemberton loamy soil, sand or pasteurized sand. The efficacy of PAA was evaluated with the Root-Knot Nematode Egg Hatch Assay using the nematode species Meloidogyne incognita and Meloidogyne hapla.
Seedlings were inoculated and cultured for 22 days and then treated for 21 days with either PAA alone at various concentrations, C9CA alone at various concentrations, or a combination of PAA and C9CA. Nematode eggs were extracted from infected roots and their ability to hatch was evaluated.
Test method: A peracetic acid stock solution containing 15% PAA and 10% H2O2 (VigorOx SP-15) was used for methods that specified 3500 and 20,000 ppm PAA. Capryleth-9 carboxylic acid (C9CA) was used at concentrations of 250 and 10000 ppm.
Solutions were applied as a soil drench with an application volume of 1 ml/cm^2. The Test Medium was pasteurized sand-loam soil. The efficacy of PAA was evaluated with the Root-knot Nematode Egg Hatch Assay using the nematode species Meloidogyne incognita and Meloidogyne hapla.
The viability of the root-knot nematodes eggs used for each set of experiments in this example was also evaluated. Eggs were incubated with the different solutions in glass dishes in the dark at 25° C. They were observed daily under the microscope to confirm that the eggs were viable and able to hatch in water after 18 hr/24 hr of incubation.

In assay [4] the test system is Bacillus subtilis ATCC 19659. The assay can be described thus: Sporicidal assay in soil. It is filed as cell-based. The note with it: 3525 ppm PAA; 1 hour, 2 and 7 days treatment. How it is done:
Test method: A peracetic acid stock solution containing 15% PAA and 10% H2O2 (VigorOx SP-15) was used for methods that specified 3525 ppm PAA. Deionized water was used as a control.
Solutions were applied as the soil drench with an application volume of 1.5 ml/cm^2. The Test Medium was pasteurized Pemberton soil. The spore inoculum was Bacillus subtilis ATCC 19659. Spores were counted as follows: Soil was pasteurized to remove background microbial content. The soil was distributed into test cells. Concentrated Bacillus subtilis ATCC 19659 spore suspension was diluted in Butterfield's buffer and used as the inoculum in this test. For titer determination, the inoculum was diluted in Butterfield's buffer and plated on Petrifilm APC. In order to test for antimicrobial efficacy following treatments, soil was scooped from the cell and measured into a sterile plastic centrifuge tube. Deionized water was then added to each soil sample. The tubes were then capped, shaken to suspend soil, and vortexed at maximum speed using the lab vortex. The samples were allowed to settle for several seconds, and then 2 mL of fluid was removed from the tube. One ml of the removed sample was diluted in 9 mL Butterfield's buffer. The remainder of the removed sample was plated onto Petrifilm APC. […] The plates were all incubated at 30±2° C. for 2-5 days and then colonies on the plates were counted.

For assay [5], the system named is Aspergillus niger ATCC 16404. The assay can be described thus: Fungicidal assay in soil. It is filed as cell-based. How it is done: Test method: A peracetic acid stock solution containing 15% PAA and 10% H2O2 (VigorOx SP-15) was used for methods that specified 3500 and 20,000 ppm PAA. Capryleth-9 carboxylic acid (C9CA) was used at concentrations of 5000 and 30,000 ppm.
Solutions were applied as a soil drench with an application volume of 1.5 ml/cm^2. The Test Medium was pasteurized Pemberton soil. The spore inoculum was Aspergillus niger ATCC 16404. The fungicidal activity of the compositions was evaluated as follows: Soil was pasteurized to remove background microbial content. The soil was the filled into test cells. Aspergillus niger ATCC 16404 was grown on Potato Dextrose Agar (PDA) plates for 5 days at 35° C. A culture for test was prepared by washing a plate with Butterfield's buffer, grinding in a sterile tissue grinder, and filtering through a cell filter to remove hyphae and debris. The suspension was diluted 1:100 in Butterfield's buffer and was added to the soil as the inoculum. The inoculum was enumerated on Petrifilm APC to determine the titer. In order to analyze antimicrobial efficacy following the treatments, soil was scooped from the cell and weighed into a sterile plastic cup. Sterile deionized water was added to the cup using a serological pipette. The cups were then capped, shaken to suspend soil, and vortexed at maximum speed using the lab vortex. The samples were allowed to settle for several seconds, and then 2 mL of fluid was removed from the tube. One ml of the removed fluid was diluted in 9 mL Butterfield's buffer. The remaining removed fluid was plated onto Petrifilm Petrifilm YM. The diluted sample was further serially diluted and plated to 10^−3 on YM. The plates were all incubated at 35±2° C. for 3 to 4 days and colonies were counted.

On to `C=O` [Formaldehyde, formaldehyde, reference compound], for which, in assay [1] (at 1%), the “% Reduction in population (CFU's)” value was determined as 42.5%. Moreover, in assay [2] (in vivo), the “Root-knot Galling Index” value turned out to be 2. Moreover, in assay [3] (in vivo), the “% Reduction of J2 Population” value is 60% and the “% Reduction of J2 population” value came to 78%.
In the case of `CC(=O)OO` [PAA, peracetic acid], the “bacterial spores capable of giving rise to viable colonies recovered” value in assay [4] was “no bacterial spores capable of giving rise to viable colonies were recovered”. In assay [1] (1750 ppm PAA), the “% Reduction in population (CFU's)” value came to 47.5%. In addition, the “Root-knot Galling Index” value in assay [2] (1750 ppm PAA, soil drench 12 kL/ha, treated 27 days, scale 0=no galling to 10=severe galling) is reported as “only a modest reduction”. For the same molecule, the “% Reduction of J2 population” value in assay [3] (Example 1, 1750 ppm PAA, 12 kL/ha, treated 13 days, Pemberton soil) was “did not reduce”; in assay [3] (Example 1, 3525 ppm PAA, 12 kL/ha, treated 13 days, Pemberton soil), 51%. The “% Reduction of J2 Population” value in assay [3] (Example 2, 5000 ppm PAA, 12 kL/ha, 21 days after treatment) came to 20%; in assay [3] (Example 2, 10000 ppm PAA, 12 kL/ha, 21 days after treatment), 28%. Moreover, in assay [3] (20000 ppm PAA), the “% Egg Hatching” value amounted to 53%. Also, the “Log10 CFU” value in assay [5] (3500 ppm PAA, 1 hour) is listed as 3.2 Log10 CFU; in assay [5] (3500 ppm PAA, 24 hours) it was 0.0 Log10 CFU; in assay [5] (7500 ppm PAA, 1 hour), 0.0 Log10 CFU; in assay [5] (7500 ppm PAA, 24 hours), 0.0 Log10 CFU. In addition, the “Log10 Reduction” value in assay [5] (3500 ppm PAA, 24 hours) was “completely eliminated; also recorded: Total kill”; in assay [5] (7500 ppm PAA, 1 hour), “Total kill”; in assay [5] (7500 ppm PAA, 24 hours), “Total kill”. In assay [5] (7000 ppm PAA, one hour of treatment), the “elimination of Aspergillus niger” value is recorded as “complete elimination”.
For Capryleth-9 Carboxylic Acid [C9CA], in assay [3] (Example 2, 10000 ppm C9CA, 12 kL/ha, 21 days after treatment), the “% Reduction of J2 Population” value came to 10%. In addition, the “% Egg Hatching” value in assay [3] (250 ppm C9CA) stood at 66%.
